Results: US10351568B2, “Compositions and methods for enhancing proteasome activity” (President and Fellows of Harvard College, priority 2010, dated 2019)

Tests used:
[1] = target: T1, Usp14/26S proteasome complexes (Homo sapiens, UniProt P54578); test: Ub-AMC hydrolysis by VS-proteasomes reconstituted with recombinant Usp14; assay type: biochemical
T1 construct: GST (N, cleaved yes); made in house; host or cells: E. coli Rosetta 2 (DE3) for Usp14
Protocol: Compounds were screened for Usp14/26S inhibition in 384-well low-volume plates in duplicate. Data processing was done by a robust Z-score method and each compound was plotted using Spotfire software. Compounds over the cut-off of Z>5 were mostly autofluorescent and were therefore not counted. To exclude quenching compounds that only affect AMC fluorescence, 312 primary hits were tested for quenching of AMC amine, and pure quenchers were scored as false-positives and excluded from further analysis (FIG. 8B).
The data plot of each experiment was fit into a four parameter logistic model (the Hill-slope model) based on guidelines from the NIH Chemical Genomics Center.

[2] = target: Usp14 (Homo sapiens, UniProt P54578); test: Mass spectrometry analysis of IU1 inhibited Usp14; assay type: binding
[3] = tested on: eight deubiquitinating enzymes of human origin; test: Deubiquitinase selectivity panel (Ub-AMC hydrolysis); assay type: biochemical; details: 17 μM
[4] = target: T2, proteasome-bound form of Uch37 (Homo sapiens, UniProt Q9Y5K5); test: Ub-AMC hydrolysis by 26S proteasomes not treated with Ub-VS (lacking Usp14); assay type: biochemical
T2 construct: endogenous in cells

[5] = target: Isopeptidase T (IsoT) (Homo sapiens, UniProt P45974); test: Isopeptidase T deubiquitinase activity; assay type: biochemical; details: 8 μM, 17 μM
[6] = target: T3, Usp14 that had not been loaded onto a proteasome (Homo sapiens, UniProt P54578); test: Activity of Usp14 not complexed to the proteasome; assay type: biochemical
T3 construct: GST (N, cleaved yes); made in house; host or cells: E. coli Rosetta 2 (DE3)

[7] = target: T4, Usp14/proteasome complexes (Homo sapiens, UniProt P54578); test: Usp14 binding to purified proteasome (immunoblot); details: various concentrations of IU1
T4 construct: GST (N, cleaved yes); made in house; host or cells: E. coli Rosetta 2 (DE3) for Usp14
From the text: The asterisk (*) denotes a nonspecific signal generated by the anti-Usp14 antibody.

[8] = target: T4, Usp14/proteasome complexes; test: In vitro ubiquitin chain trimming assay with polyubiquitinated cyclin B; assay type: biochemical
Protocol: Immunoblot was performed using an antibody specific for human cyclin B (CCNB).
(§1) The effect of Usp14 on the degradation of ubiquitinated substrates was examined using an in vitro degradation assay using the ubiquitin-dependent proteasome substrate polyubiquitinated cyclin B (Ubn-ClnB).
To separate chain trimming from substrate degradation, these assays were done in the presence of proteasome inhibitors. The effectiveness of the proteasome inhibitors is evidenced by the accumulation of unmodified cyclin B in the assay (FIG. 15).

[9] = target: T5, Usp14-containing proteasomes (Homo sapiens, UniProt P54578); test: In vitro Ubn-ClnB degradation assay; assay type: biochemical
T5 construct: GST (N, cleaved yes); made in house; host or cells: E. coli Rosetta 2 (DE3) for Usp14
From the text: as §1
It was next tested whether IU1 could serve as an enhancer of substrate degradation by the proteasome.

[10] = Compound concentration in serum-containing media / release, 293 cells; assay type: in vitro ADME; details: 1 hr to 48 hr
Protocol: The experiment was performed as in FIG. 42A.

[11] = tested on: Tau; test: Tau degradation in MEF cells (immunoblot, RT-PCR); assay type: cell-based
From the text: No effect was seen on Tau mRNA levels (FIG. 21B).

[12] = tested on: TDP-43; test: TDP-43 depletion in MEF cells (immunoblot); assay type: cell-based; details: 75 μM IU1
Protocol: (§2) Other proteins that have been implicated in proteotoxic mechanisms were also tested.

[13] = tested on: ataxin-3; test: Ataxin-3 depletion in MEF cells (immunoblot); assay type: cell-based; details: 50 or 100 μM IU1
Protocol: as §2

[14] = tested on: glial fibrillary acidic protein (GFAP); test: GFAP depletion in MEF cells (immunoblot); assay type: cell-based; details: MEF cells, 25, 50 or 100 μM IU1
Protocol: as §2

[15] = tested on: GFP-ODC; test: Degradation of ubiquitin-independent proteasome substrate in cells; assay type: cell-based
Protocol: Proteasome inhibitors (30 μM MG132, 10 μM PS-341) were treated 4 hr before lysis.
as §2

[16] = tested on: oxidized proteins; test: Oxidized protein accumulation after menadione (DNPH immunoblot); assay type: cell-based; details: MEFs, 75 μM IU1 4 hours, then 63 μM menadione 45 minutes
From the text: Oxidized proteins form another class of proteasome substrates that play an important role in human health. Harmful oxidized proteins accumulate upon ageing and are implicated in a variety of age-related diseases and disorders (Stadtman (2006) Protein oxidation and aging. Free Radic. Res. 40, 1250-1258; Ahmed et al. (2007) Protein oxidative modifications and replicative senescence of WI-38 human embryonic fibroblasts. Ann. NY Acad. Sci., 1119, 88-96; Moskovitz et al. (2001). Methionine sulfoxide reductase (MsrA) is a regulator of antioxidant defense and lifespan in mammals. Proc. Nat. Acad. Sci. USA, […], 12920-12925.). Protein oxidation was induced by treating cells with menadione, and oxidized species were visualized using an antibody specific for protein carbonyls. […] The cells were lysed and lysates were incubated with DNPH and immunoblotted with anti-DNPH antibody to assay for oxidized proteins.

[17] = tested on: HEK293 cells; test: MTT cell survival upon menadione oxidative stress, HEK293; assay type: cell-based, human; details: 6 hr, menadione 4 hr
[18] = tested on: MEF cells; test: MTT cell survival upon menadione oxidative stress, MEF; assay type: cell-based
From the text: The effect on the IC50 for menadione is almost 4-fold.

[19] = Hydrogen peroxide toxicity; assay type: cell-based; details: data not shown
[20] = tested on: MEF, HEK293 and HeLa cells; test: MTT cell viability assay; assay type: cell-based; details: MTT after 6, 12, 24 or 48 hours
Protocol: (§3) Effects on cell viability became apparent at concentrations over 100 μM, well above the doses required to enhance the degradation of Tau, TDP-43, ataxin-3, and oxidized proteins (FIGS. 21-23).

[21] = tested on: MEF cells; test: TUNEL apoptosis assay; assay type: cell-based; details: 100 μM IU1, 6 hr
Protocol: as §3

[22] = tested on: MEFs and 293 cells; test: Cell proliferation by real-time microscopy (confluency); assay type: cell-based
[23] = tested on: proteasome; test: Proteasome integrity by native PAGE of total cell extracts; assay type: cell-based; details: 100 μM IU1, 6-hr
From the text: RP2-CP and RP-CP indicate distinct forms of the 26S proteasome.

[24] = tested on: murine Psmb5 promoter; test: Psmb5 promoter luciferase reporter in MEFs; assay type: cell-based; details: wild-type and Usp14−/− MEFs, 25 or 50 μM, 8 hr
Protocol: For normalization of luciferase activity, a control experiment using the promoter-less pGL3 plasmid was performed. Values are mean±SD from three independent experiments. RLU, relative light units.

[25] = tested on: UbB, α6, α7; test: Quantitative RT-PCR of ubiquitin and proteasome subunit genes in MEFs; assay type: cell-based; details: +/+ and Usp14−/− MEFs, graded doses, 6 hr
[26] = Cellular entry, release and stability of compound (LC/MS, UV absorption)
From the text: Cell lysates were collected and ethyl acetate extraction was used to prepare mass spectrometer samples.

[27] = tested on: mCherry-NBR1; test: mCherry-NBR1 immunofluorescence in wild-type MEFs; assay type: cell-based; details: 200 μM, 6 hr

Isopeptidase T (IsoT), sequence (P45974 whole entry): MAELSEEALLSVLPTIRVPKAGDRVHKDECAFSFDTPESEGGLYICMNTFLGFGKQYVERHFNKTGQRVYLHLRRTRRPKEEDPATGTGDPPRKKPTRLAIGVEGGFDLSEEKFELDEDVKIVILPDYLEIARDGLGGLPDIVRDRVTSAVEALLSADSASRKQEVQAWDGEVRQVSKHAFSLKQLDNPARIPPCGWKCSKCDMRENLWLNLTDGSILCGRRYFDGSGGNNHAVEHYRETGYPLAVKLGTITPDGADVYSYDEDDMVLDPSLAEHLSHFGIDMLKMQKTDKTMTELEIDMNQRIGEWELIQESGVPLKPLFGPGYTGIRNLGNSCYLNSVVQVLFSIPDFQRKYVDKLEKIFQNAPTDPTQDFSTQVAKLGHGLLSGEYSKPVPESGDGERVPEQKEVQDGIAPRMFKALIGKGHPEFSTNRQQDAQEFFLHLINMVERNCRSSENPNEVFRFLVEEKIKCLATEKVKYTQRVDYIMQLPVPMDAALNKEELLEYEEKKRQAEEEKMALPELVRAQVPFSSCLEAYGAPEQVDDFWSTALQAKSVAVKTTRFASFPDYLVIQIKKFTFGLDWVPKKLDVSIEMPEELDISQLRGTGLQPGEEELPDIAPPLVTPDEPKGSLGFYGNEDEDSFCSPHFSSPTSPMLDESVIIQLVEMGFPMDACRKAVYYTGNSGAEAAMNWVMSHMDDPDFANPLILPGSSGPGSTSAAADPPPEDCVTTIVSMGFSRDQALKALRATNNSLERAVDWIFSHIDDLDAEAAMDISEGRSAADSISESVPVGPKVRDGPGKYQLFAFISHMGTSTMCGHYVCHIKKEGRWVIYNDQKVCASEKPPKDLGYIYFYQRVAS
Usp14, sequence (P54578 whole entry): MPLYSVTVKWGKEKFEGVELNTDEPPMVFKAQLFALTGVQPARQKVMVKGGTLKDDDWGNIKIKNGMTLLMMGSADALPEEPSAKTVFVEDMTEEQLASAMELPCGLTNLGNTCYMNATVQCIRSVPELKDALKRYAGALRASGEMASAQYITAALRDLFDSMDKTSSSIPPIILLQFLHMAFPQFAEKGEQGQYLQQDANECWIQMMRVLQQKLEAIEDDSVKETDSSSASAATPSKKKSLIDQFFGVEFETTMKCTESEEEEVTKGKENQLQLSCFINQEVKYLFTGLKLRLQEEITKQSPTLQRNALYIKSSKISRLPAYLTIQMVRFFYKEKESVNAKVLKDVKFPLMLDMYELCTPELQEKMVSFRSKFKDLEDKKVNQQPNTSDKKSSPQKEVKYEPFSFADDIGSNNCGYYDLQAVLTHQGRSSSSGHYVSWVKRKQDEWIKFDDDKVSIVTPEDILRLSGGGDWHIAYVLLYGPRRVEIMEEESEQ
T3 sequence (P54578 whole entry): as above

## Cc1cc(C(=O)CN2CCCC2)c(C)n1-c1ccc(F)cc1 [IU1, 1-[1-(4-fluorophenyl)-2,5-dimethlypyrrol-3-yl]-2-pyrrolidin-1-ylethanone]
[1]; IU1 100 μM added 30 min after 1 μM Ub-AMC, 2.5 nM proteasome, 30 nM USP14
  lag period of inhibition: without a detectable lag period
[1]; activity after up to three ultrafiltration spins
  reversibility of inhibition of Usp14: rapidly reversible
[1]; proteasome-bound Usp14, Ub-AMC
  inhibition of Usp14 deubiquitinase: potent inhibitor of proteasome-bound Usp14
[2]
  covalent IU1-Usp14 adducts: failed to detect any covalent IU1-Usp14 adducts
[3]
  inhibition of other tested deubiquitinating enzymes: failed to significantly inhibit
[3]; lower concentrations of Ub-AMC
  specificity for USP14 versus Ub-AMC concentration: observed independently of Ub-AMC concentration
[4]
  inhibition of proteasome-bound Uch37: does not inhibit
[5]
  inhibition of Isopeptidase T: lack of inhibition
[6]
  inhibition of Usp14 not complexed to the proteasome: failed to inhibit
[7]
  effect on Usp14 complexing with the proteasome: did not antagonize Usp14 complexing with the proteasome
[8]; proteasome purified and assayed in presence of ADP
  concentration effective at inhibition of chain trimming: approximately 5 μM
[8]; with Usp14, presence of proteasome inhibitors
  chain trimming, Usp14/proteasome complexes: reduced the chain trimming to a level similar to that of the proteasome complexes that lacked Usp14
[8]; without Usp14, presence of proteasome inhibitors
  release of ubiquitin chains from cyclin B, proteasomes that lack Usp14: little or no effect
[9]; 34 μM IU1
  degradation of Ub-cyclin B by Usp14-containing proteasomes: stimulated the activity of Usp14-containing proteasomes
  substrate degradation or chain trimming by proteasomes that lack Usp14: no effect
[9]; catalytically inactive USP14
  cyclin B degradation in the presence of USP14-CA: does not affect cyclin B degradation
[10]
  concentration in serum-containing media of HEK293 cells: comparable concentration
[11]; MEF cells, 25 to 100 μM, 6 hours
  Tau levels: reduced Tau levels at all concentrations tested
[11]; MEF cells, 25 to 100 μM, quantitative RT-PCR
  Tau mRNA levels: No effect
[11]; wild-type MEF, 75 μM IU1 and/or BafA1, 6 hrs
  dependence of Tau degradation stimulation on autophagy: not mediated by autophagy
[12]
  TDP-43 level in cells: similarly depleted
[13]
  ataxin-3 level in cells: similarly depleted
[14]
  GFAP level in cells: similarly depleted
[15]
  degradation of GFP-ODC: little or no effect
[16]
  accumulation of oxidized proteins: reduced
[17]; IU1 50 uM
  effect on the IC50 for menadione: ~4 fold
[17]; compound 50 uM
  menadione toxicity: reduced this toxicity substantially
[18]
  effect on cell survival upon oxidative stress: show this effect as well
[19]
  hydrogen peroxide toxicity: reduced the toxicity
[20]
  concentration at which effects on cell viability became apparent: over 100 μM
[21]
  induction of apoptosis: did not noticeably induce apoptosis
[22]; 120 μM
  inhibition of cellular proliferation at 120 μM: only a slight inhibition
[22]; below 120 μM
  inhibition of cellular proliferation at lower concentrations: no apparent inhibition
[23]
  integrity of proteasome: does not affect the integrity of proteasome
[24]
  transcription of Psmb5 gene: does not induce the transcription
[25]
  transcription of UbB: does not induce the transcription
  transcription of α6: does not induce the transcription
  transcription of α7: does not induce the transcription
[26]; 50 μM added to medium, MEFs
  time to reach steady-state concentration within cells: ≤ 1 h
[26]; 50 μM added to medium, MEFs, LC/MS
  steady-state concentration within cells: ~19 µM
[26]; 50 μM for one hour, then fresh media
  release of internalized compound from wild-type MEF cells: rapid release
[26]; 1 hr to 48 hr
  concentration in serum-containing media of Usp14−/− MEF cells: comparable concentration

## CO/C1=C\C(C)=C\[C@@H](C)[C@@H](O)[C@@H](C)C/C(C)=C/C=C/[C@H](OC)[C@@H]([C@@H](C)[C@@H](O)[C@H](C)[C@@]2(O)C[C@@H](O)[C@H](C)[C@@H](C(C)C)O2)OC1=O [bafilomycin A1]
[27]
  immunofluorescence signal of mCherry-NBR1: significantly increased
